Here are results for five molecules from patent publication US10456344B2, “Hair composition” (Conopco, Inc., priority 2014, dated 2019).

For assay [1], the system named is antioxidant response element (ARE). The experiment in a line: HaCaT cell with antioxidant response element (ARE) reporter gene (luciferase) assay. To be noted: n = 3. It counts as cell-based, human. How it is done: HaCaT (immortal human keratinocyte) cells (P42) were stored in liquid nitrogen and revived in DMEM containing 10% FBS. The cells were sub-cultured and cryostocks made in 10% DMEM containing 10% DMSO from the first two passages.
To generate a stable cell line, the optimal antibiotic concentration was determined for selecting stable cell colonies. A kill curve was performed using untransfected HaCaT cells to evaluate their hygromycin B sensitivity (as the ARE-luciferase construct to be used for transfection contains the gene for hygromycin B resistance). HaCaT cells were plated in a 24-well tissue culture plate at a cell density of ˜80,000 cells per well. 24 hours later the cells were treated with different concentrations of Hygromycin B (ranging from 100 μg/ml to 800 μg/ml for seven days).
pGL4.37 (luc2P/ARE/Hygro) vector (Promega Cat. No. #E3641) transformed into DH5α competent cells (Invitrogen Cat. No. #18263-012). These were then plated on to an LB-ampicillin plate and kept overnight at 37° C. in an incubator.
The next day, single colonies were picked and inoculated in 5 ml LB Amp medium and kept at 37° C. for 8 hours in a shaker incubator at 250 rpm. The starter culture was then inoculated at 1:100 in 100 ml LB Amp medium. 24 hours later, the culture was harvested and transfection grade plasmid prepared using Sigma's Plasmid Midiprep Kit (Cat. No. #PLD35-1KT).
HaCaT cells were plated in 6-well tissue culture plate at a cell density of 500,000 cells per well. After 24 hours, the cells were transfected with 2 μg of endotoxin-free transfection grade pGL4.37 [luc2P/ARE/Hygro] vector in duplicates using Lipofectamine 2000 Reagent (Invitrogen) as per manufacturer's protocol. After transfection, HaCaT cells were allowed to grow and to express the protein for Hygromycin B resistance under non-selective conditions for 24 hours. One day post transfection cells were treated with Hygromycin B at a concentration of 400 μg/ml to initiate the antibiotic selection pressure. For the selection of stably expressing cells, HaCaT cells were grown in 10% DMEM medium containing 400 μg/ml of Hygromycin B. Under Hygromycin B selective conditions, resistant cells will outgrow non-resistant cells thereby resulting in a polyclonal population of stably-expressing cells. Stably expressing HaCaT cells were fed every 2-3 days with 400 μg/ml Hygromycin B selection medium. After 3 weeks of selection with 400 μg/ml of Hygromycin B medium stable pools were observed on the plate. Individual clones were picked using cloning rings and transferred to 96-well plate and expanded up to T25 cm^2 flask. Out of a dozen individual clones, clone 7 was chosen and validated for expression of luciferase upon treatment with D,L-sulforaphane.
HaCaT_ARE_luc2P_Clone_7 cells were seeded in a 96 well plate at a cell density of ˜7.5×10^3 cells per well. 24 hours later D, L-sulforaphane was added at increasing concentrations (0 μM, 0.2 μM, 0.4 μM, 0.6 μM, 0.8 μM and 1 μM). A standard curve for the luciferase assay was generated for relative light units (RLU) for HaCaT_ARE_Clone_7 cells treated with increasing concentrations of D,L-sulforaphane.
HaCaT_ARE_luc2P_Clone_7 cells were seeded in 96 well plates at a cell density of ˜7,500 cells per well. All test compounds were added to the cells at a final dilution of 1:1000 and the luciferase assay performed.
The following combinations of test compounds were evaluated in the assay: • (a) granilin, an NRF2 agonist, and 22(R)-hydroxycholesterol, a liver X receptor α/β agonist; • (b) granilin and 3-[3-[[[2-chloro-3-(trifluoromethyl)phenyl]methyl](2,2-diphenylethyl) amino]propoxy]benzeneacetic acid hydrochloride (also known as GW 3965 hydrochloride and available from Tocris), a liver X receptor α/β agonist; and • (c) granilin and stigmasterol, a liver X receptor α/β agonist. Results

Assay [2] deals with hemeoxygenase-1 (HO-1) protein. The experiment in a line: HO-1 ELISA of lysates of treated HaCaT cells. It counts as cell-based, human. To be noted: 24 hours, n = 3. How it is done:
HaCaT (immortal human keratinocyte) cells (P42) were stored in liquid nitrogen and revived in DMEM containing 10% FBS. The cells were sub-cultured and cryostocks made in 10% DMEM containing 10% DMSO from the first two passages. Cells were routinely plated out in 6-well tissue culture dishes, at a seeding density of ˜5000 cells/cm2 in 2 ml complete medium/well for 24 hours, and incubated at 37° C. in 5% CO2. Test solutions were prepared in ethanol or DMSO and added directly to the cells and treated for 24 hours. The cells were then pelleted. All cell pellets were lysed on ice for 30 minutes in 1 ml cell lysis buffer per 2.5×10^6 cells. The lysis buffer contained 1% NP-40, 0.1% sodium deoxycholate, 0.1% SDS, 6 mM sodium chloride and 0.05 M Tris at pH 7.6. […] Sigma P8340) was added prior to use at a level of 10 μl per ml of lysis buffer. The clarified cell lysate was frozen at −80° C. until needed. The total protein concentration of each cell lysate was measured using the Pierce BCA protein assay kit. […] The reagent solution was prepared according to the kit instructions from 50 parts reagent A and 1 part reagent B. 200 μl of the final reagent was added to each well of the microtitre plate. The plate was mixed, covered and incubated at 37° C. for 30 minutes and absorbance read at 562 nm. A protein standard curve was constructed and used to determine the protein concentration of each cell lysate. HO-1 ELISA (R & D Systems) The hemeoxygenase-1 (HO-1) protein concentration of each cell lysate was assayed using the DuoSet Human Total HO-1/HMOX1 assay (R&D Systems DYC3776) according to the manufacturer's instructions. […] The HO-1 capture antibody was diluted to a concentration of 8 μg/ml in PBS and was bound to the microtitre plate (Greiner Bio-One) overnight at room temperature. The unbound antibody was then removed by washing 3 times with wash buffer (0.05% Tween 20 in PBS) on an automatic plate washer. […] The plate was washed as before. 100 μl of 1/200 diluted streptavidin horseradish peroxidase (HRP) was added to each well and incubated in the dark for 20 minutes at room temperature. The plate was washed as before and then 100 μl of substrate solution (R&D Systems DY999, 1:1 mixture of Colour Reagent A and Colour Reagent B) was added to each well and incubated, in the dark at room temperature, until colour developed (approx 20 minutes). 50 μl of stop solution (2M H2SO4) was applied to each well and the plate read on a microplate reader (Dynex MRX) at 450 nm with wavelength correction set at 540 nm. A standard curve was plotted of mean OD versus HO-1 concentration and the line of best fit calculated by regression analysis. The unknown concentration of HO-1 protein in all the samples was calculated from this. The results were normalised using the total protein data and expressed as ng HO-1 per μg protein. The test compounds were sulforaphane, an NRF2 agonist, and 22(R)-hydroxycholesterol, a liver X receptor α/β agonist, and mixtures thereof.

Assay [3] has as its system NADP(H): quinone oxidoreductase (NQO-1). The assay can be described thus: NQO-1 gene expression assay of hair follicle cells (real time PCR). To be noted: 24 hour treatment, n = 3. The format is cell-based, human. The source says: Temporal or occipital human scalp skin was obtained from subjects undergoing face-lift or hair transplant surgery with informed consent and ethics approval. Anagen VI hair follicles were isolated and maintained according to the method described in Philpott et al (J. Cell Sci 97, 463-471 (1990)). Dhurat et al (Int J Trichology, 2(2), 96-100 (July-December 2010)) describe that anagen is conventionally divided into six stages, Anagen I-V (proanagen), when the hair shaft grows within the hair follicle, and Anagen VI ([…]), when the tip of the hair shaft emerges from the hair follicle. Hair follicles were stabilised in RNAlater (for PCR). Five individual Anagen VI hair follicles were used for each culture condition/patient. […] RNA was extracted using the Qiagen RNeasy Microkit (maximum 5 mg tissue per extraction). […] cDNA was diluted 1:10 in RNase free water. […] Plates were run on an Applied Biosystems StepOnePlusTM Real Time PCR machine. Fast cycling conditions were used, utilising a 2 minute polymerase activation step at 95° C., followed by 45 cycles of denaturing at 95° C. for 1 second, and annealing/extension at 60° C. for 20 seconds. […] Data was analysed by the ΔΔCt methodology The test compounds were sulforaphane, an NRF2 agonist, and 22(R)-hydroxycholesterol, a liver X receptor α/β agonist, and mixtures thereof.

A further assay relates to HO-1. To be noted: hair follicles treated with sulforaphane; cited from earlier work.

Consider `CC(C)CC[C@@H](O)[C@@H](C)[C@H]1CC[C@H]2[C@@H]3CC=C4C[C@@H](O)CC[C@]4(C)[C@H]3CC[C@]12C` [22(R)-hydroxycholesterol], for which the RLU in assay [1] (1 μM single compound) is on record as 1.17 ± 0.03 RLU; in assay [1] (10 μM single compound), 0.67 ± 0.01 RLU. Moreover, the “HO-1 protein (ng HO-1 per μg protein)” value in assay [2] (1 μM single compound) came to 1.486 ± 0.387 ng HO-1 per μg protein; in assay [2] (10 μM single compound), 3.174 ± 0.119 ng HO-1 per μg protein. The “NQO-1 Fold change compared to 18S” value in assay [3] (5 μM) is reported as 1.04 ± 0.05 Fold change.
With `Cl.O=C(O)Cc1cccc(OCCCN(Cc2cccc(C(F)(F)F)c2Cl)CC(c2ccccc2)c2ccccc2)c1` [GW 3965 hydrochloride, 3-[3-[[[2-chloro-3-(trifluoromethyl)phenyl]methyl](2,2-diphenylethyl)amino]propoxy]benzeneacetic acid hydrochloride], the results for the RLU in assay [1] (1 μM single compound) and in assay [1] (10 μM single compound) were 1.02 ± 0.02 RLU and 0.63 ± 0.01 RLU, respectively.
For the molecule `C=C1C(=O)O[C@@H]2C[C@@]3(C)[C@@H](O)C[C@@H](O)C(=C)[C@@H]3C[C@H]12` [granilin], the values for the RLU in assay [1] (1 μM single compound) and in assay [1] (5 μM single compound) were 3.77 ± 0.31 RLU and 15.04 ± 0.18 RLU, respectively.
In the case of `CC[C@H](/C=C/[C@@H](C)[C@H]1CC[C@H]2[C@@H]3CC=C4C[C@@H](O)CC[C@]4(C)[C@H]3CC[C@]12C)C(C)C` [stigmasterol], the RLU in assay [1] (1 μM single compound) was 0.78 ± 0.02 RLU; in assay [1] (10 μM single compound), 0.69 ± 0.00 RLU.
For the molecule `C[S+]([O-])CCCCN=C=S` (stereo not shown) [sulforaphane], the “HO-1 protein (ng HO-1 per μg protein)” value in assay [2] (0.01 μM single compound) turned out to be 1.602 ± 0.248 ng HO-1 per μg protein; in assay [2] (0.05 μM single compound) it was 1.600 ± 0.385 ng HO-1 per μg protein; in assay [2] (1 μM single compound) it was 1.910 ± 0.418 ng HO-1 per μg protein. For the same molecule, the “NQO-1 Fold change compared to 18S” value in assay [3] (10 μM) was determined as 5.44 ± 0.50 Fold change. In addition, the “HO-1 in the mesenchymal connective tissue sheath” value in the assay on HO-1 is recorded as “up-regulation of HO-1”.
